# Source: US20260265305A1, “POLYPEPTIDE DERIVATIVE FOR ORAL DELIVERY” (Hangzhou Sciwind Biosciences Co., Ltd., priority 2023, published 2026)
# Like-named read-outs stand apart in the source and are kept apart here. Numbered stars: 1 amine (or outer) side, 2 acyl side, 3 side chain; on linkers, the order of the positions; unused ones are H or OH. Square brackets hold non-standard residues; d marks the D form. Peptide text beside a SMILES is read from it. * marks the point of attachment. C20 diacid = O=C(O)CCCCCCCCCCCCCCCCCCC(=O)*; C18 diacid = O=C(O)CCCCCCCCCCCCCCCCC(=O)*; γGlu = O=C(O)[C@H](CCC(=O)[*:2])N[*:1]; βAsp = O=C(O)[C@H](CC(=O)[*:2])N[*:1]; Trx = NC[C@H]1CC[C@H](C(=O)O)CC1; AEEA = NCCOCCOCC(=O)O; Inp = O=C(O)C1CCNCC1
# What was measured:
# [1] = Heat accelerated stability assay of polypeptide solutions (40° C., pH about 7.4), reversed phase chromatography; assay type: physicochemical; settings: 40° C.; for Concentration change on 7 d / Concentration change on 26 d: pH about 7.4, 1 mg/mL; for Concentration change on 7 d / Purity change on 7 d: Day 7; for Concentration change on 26 d / Purity change on 26 d: Day 26; for Purity change on 7 d / Purity change on 26 d: reversed phase chromatography 214 nm; for Purity change on 7 d: purity on 7 d − purity on 0 d; for Purity change on 26 d: purity on 26 d − purity on 0 d
# How it was run: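 Polypeptide derivative lyophilisate (1 mg/mL) with sodium dihydrogen phosphate (1.42 mg/mL) in water, pH about 7.4, sterile-filtered, vialed and held at 40° C; sampled on days 7 and 26. After centrifugation, concentration and purity (target/total peak area) by C18 RP-HPLC, TFA/ACN gradient, 280 and 214 nm.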
# [2] = target: T1, amylin receptor (hAMY3R) (Homo sapiens, UniProt O60896+P30988); assay: Amylin receptor agonism testing, CRE-luciferase assay in stably transfected CHO-K1/Ga15/AMY3 cells; assay type: cell-based; settings: for Fold change in activity against hAMY3R: relative to D1 as benchmark
# T1 construct: host or cells: CHO-K1/Ga15/AMY3 cells, further stably transfected with a CRE-luciferase plasmid
# T1 sequence (P30988 25-474): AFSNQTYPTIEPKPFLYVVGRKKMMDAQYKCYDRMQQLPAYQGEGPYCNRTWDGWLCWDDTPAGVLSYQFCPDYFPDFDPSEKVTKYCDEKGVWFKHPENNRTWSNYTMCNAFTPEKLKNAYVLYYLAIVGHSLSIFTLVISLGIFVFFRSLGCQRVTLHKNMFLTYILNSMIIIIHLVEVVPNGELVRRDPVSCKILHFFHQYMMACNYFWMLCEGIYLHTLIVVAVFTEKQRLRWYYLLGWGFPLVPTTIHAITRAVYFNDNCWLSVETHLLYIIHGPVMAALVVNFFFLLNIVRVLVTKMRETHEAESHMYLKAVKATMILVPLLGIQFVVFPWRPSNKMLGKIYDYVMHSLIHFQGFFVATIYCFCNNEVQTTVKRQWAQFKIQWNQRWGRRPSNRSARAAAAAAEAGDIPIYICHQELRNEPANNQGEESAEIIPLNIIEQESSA
# T1 sequence (O60896 24-148): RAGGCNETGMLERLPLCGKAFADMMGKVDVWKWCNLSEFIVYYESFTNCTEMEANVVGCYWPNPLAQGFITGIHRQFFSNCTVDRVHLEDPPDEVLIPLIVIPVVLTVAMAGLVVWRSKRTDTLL
# [3] = target: T2, calcitonin receptor (hCTR) (Homo sapiens, UniProt P30988); assay: Calcitonin receptor agonism, CRE-luciferase assay in stably transfected CHO-K1/CALCR/Ga15 cells; assay type: cell-based; settings: for Fold change in activity against hCTR: relative to D1 as benchmark; for EC50: incubation of 24 hours, Table 4, read-out: EC50, activity against the calcitonin receptor in cells
# T2 construct: host or cells: CHO-K1/CALCR/Ga15 cells, further stably transfected with a CRE-luciferase plasmid
# T2 sequence (P30988 25-474): T1 sequence (P30988 25-474)
# Experimental: Using the standard protocol, CHO-K1/CALCR/Ga15 cells (purchased from GenScript, with the calcitonin receptor constructed already) were transfected with a plasmid containing a luciferase expression cassette driven by multiple copies of cAMP response elements (CREs). The cells were cultured in an F12 medium containing 200 ug/mL Zeocin, 2 ug/mL puromycin, and 100 ug/mL hygromycin to afford a stably transfected calcitonin receptor/CRE-luc cell line.
# To each well of a white 96-well plate was added 50 μL of the tested sample solution at a respective concentration.
# The stably transfected calcitonin receptor/CRE-luc CHO cells were resuspended in the growth medium at a certain density, and 50 μL of the cell suspension was added at a density of about 20,000 cells per well to the white 96-well plate containing the tested sample solution. After incubation of 24 hours at 37° C. and 5% CO2, 100 μL of a Luciferase substrate was added to each well, incubated for 3 minutes, and finally was tested for luminescence on SpectraMax L (Molecular Devices) with the software SoftMax Pro 7.0.3 GxP. A standard curve was plotted using the fluorescent intensities for calculation of EC50.
Concentration change on 26 d [1] [%],Purity change on 7 d [1],Purity change on 26 d [1],"EC50 ([2]; Table 5 integrated analysis, read-out: hAMY3R EC50) [nM]",Fold change in activity against hAMY3R [2],Fold change in activity against hCTR [3],EC50 [3] [nM],"EC50 ([2]; incubation of 24 hours, Table 3, read-out: EC50, activity against the amylin receptor in cells) [nM]",Compound,Concentration change on 7 d [1]
−10.824,No change,−5.67%,0.119,0.303,0.183,–,–,CC(C)C[C@H](NC(=O)[C@H](CCCNC(=N)N)NC(=O)CNC(=O)[C@H](CC(C)C)NC(=O)[C@@H](NC(=O)[C@H](C)NC(=O)[C@@H](NC(=O)[C@H](CO)NC(=O)[C@H](CC(C)C)NC(=O)[C@H](CCC(N)=O)NC(=O)[C@H](CO)NC(=O)[C@H](C)NC(=O)[C@H]1CC[C@H](CNC(=O)CCCCCCCCCCCCCCCCC(=O)O)CC1)[C@@H](C)O)C(C)C)C(=O)N[C@@H](CO)C(=O)N[C@@H](CC(=O)O)C(=O)N[C@@H](CCC(=O)O)C(=O)N[C@@H](CC(C)C)C(=O)N[C@@H](Cc1c[nH]cn1)C(=O)N[C@@H](CCCNC(=N)N)C(=O)N[C@@H](CC(C)C)C(=O)N[C@@H](CCC(N)=O)C(=O)N[C@@H](CC(=O)O)C(=O)N[C@@H](Cc1ccc(O)cc1)C(=O)N1CCC[C@H]1C(=O)N[C@@H](CCCNC(=N)N)C(=O)N[C@H](C(=O)N[C@@H](CC(=O)O)C(=O)N[C@H](C(=O)NCC(=O)N[C@@H](CO)C(=O)NCC(=O)N[C@@H](CO)C(=O)N1CCC[C@H]1C(N)=O)C(C)C)[C@@H](C)O [M15] ({C18 diacid-Trx}-ASQLSTAVLGRLSDELHRLQDYPRTDVGSGSP-NH2),No change (concentration change of less than 1% (denoted as “no change”))
−9.840,1.01%,−2.93%,–,2.250,1.211,0.071,–,CC(C)C[C@H](NC(=O)[C@H](CCCNC(=N)N)NC(=O)CNC(=O)[C@H](CC(C)C)NC(=O)[C@@H](NC(=O)[C@H](C)NC(=O)[C@@H](NC(=O)[C@H](CO)NC(=O)[C@H](CC(C)C)NC(=O)[C@H](CCC(N)=O)NC(=O)[C@H](CO)NC(=O)[C@H](C)NC(=O)[C@H](CCC(=O)O)NC(=O)CCCCCCCCCCCCCCCCC(=O)O)[C@@H](C)O)C(C)C)C(=O)N[C@@H](CO)C(=O)N[C@@H](CC(=O)O)C(=O)N[C@@H](CCC(=O)O)C(=O)N[C@@H](CC(C)C)C(=O)N[C@@H](Cc1c[nH]cn1)C(=O)N[C@@H](CCCNC(=N)N)C(=O)N[C@@H](CC(C)C)C(=O)N[C@@H](CCC(N)=O)C(=O)N[C@@H](CC(=O)O)C(=O)N[C@@H](Cc1ccc(O)cc1)C(=O)N1CCC[C@H]1C(=O)N[C@@H](CCCNC(=N)N)C(=O)N[C@H](C(=O)N[C@@H](CC(=O)O)C(=O)N[C@H](C(=O)NCC(=O)N[C@@H](CO)C(=O)NCC(=O)N[C@@H](CO)C(=O)N1CCC[C@H]1C(N)=O)C(C)C)[C@@H](C)O [M11] ({C18 diacid}-EASQLSTAVLGRLSDELHRLQDYPRTDVGSGSP-NH2),−3.472%
−3.036,3.42%,2.18%,–,0.439,0.229,0.376,–,CC(C)C[C@H](NC(=O)[C@H](CCCNC(=N)N)NC(=O)CNC(=O)[C@H](CC(C)C)NC(=O)[C@@H](NC(=O)[C@H](C)NC(=O)[C@@H](NC(=O)[C@H](CO)NC(=O)[C@H](CC(C)C)NC(=O)[C@H](CCC(N)=O)NC(=O)[C@H](CO)NC(=O)[C@H](C)NC(=O)C1CCN(C(=O)CCCCCCCCCCCCCCCCCCC(=O)O)CC1)[C@@H](C)O)C(C)C)C(=O)N[C@@H](CO)C(=O)N[C@@H](CC(=O)O)C(=O)N[C@@H](CCC(=O)O)C(=O)N[C@@H](CC(C)C)C(=O)N[C@@H](Cc1c[nH]cn1)C(=O)N[C@@H](CCCNC(=N)N)C(=O)N[C@@H](CC(C)C)C(=O)N[C@@H](CCC(N)=O)C(=O)N[C@@H](CC(=O)O)C(=O)N[C@@H](Cc1ccc(O)cc1)C(=O)N1CCC[C@H]1C(=O)N[C@@H](CCCNC(=N)N)C(=O)N[C@H](C(=O)N[C@@H](CC(=O)O)C(=O)N[C@H](C(=O)NCC(=O)N[C@@H](CO)C(=O)NCC(=O)N[C@@H](CO)C(=O)N1CCC[C@H]1C(N)=O)C(C)C)[C@@H](C)O [M16] ({C20 diacid-Inp}-ASQLSTAVLGRLSDELHRLQDYPRTDVGSGSP-NH2),−2.883%
−8.378,1.12%,−1.96%,–,2.118,1.178,0.073,–,CC(C)C[C@H](NC(=O)[C@H](CCCNC(=N)N)NC(=O)CNC(=O)[C@H](CC(C)C)NC(=O)[C@@H](NC(=O)[C@H](C)NC(=O)[C@@H](NC(=O)[C@H](CO)NC(=O)[C@H](CC(C)C)NC(=O)[C@H](CCC(N)=O)NC(=O)[C@H](CO)NC(=O)[C@H](C)NC(=O)C[C@H](NC(=O)CCCCCCCCCCCCCCCCCCC(=O)O)C(=O)O)[C@@H](C)O)C(C)C)C(=O)N[C@@H](CO)C(=O)N[C@@H](CC(=O)O)C(=O)N[C@@H](CCC(=O)O)C(=O)N[C@@H](CC(C)C)C(=O)N[C@@H](Cc1c[nH]cn1)C(=O)N[C@@H](CCCNC(=N)N)C(=O)N[C@@H](CC(C)C)C(=O)N[C@@H](CCC(N)=O)C(=O)N[C@@H](CC(=O)O)C(=O)N[C@@H](Cc1ccc(O)cc1)C(=O)N1CCC[C@H]1C(=O)N[C@@H](CCCNC(=N)N)C(=O)N[C@H](C(=O)N[C@@H](CC(=O)O)C(=O)N[C@H](C(=O)NCC(=O)N[C@@H](CO)C(=O)NCC(=O)N[C@@H](CO)C(=O)N1CCC[C@H]1C(N)=O)C(C)C)[C@@H](C)O [M12] ({C20 diacid-βAsp}-ASQLSTAVLGRLSDELHRLQDYPRTDVGSGSP-NH2),No change (concentration change of less than 1% (denoted as “no change”))
−3.954,−1.59%,−7.24%,–,5.143,1.061,0.081,0.007,CC(C)C[C@H](NC(=O)[C@H](CCCNC(=N)N)NC(=O)CNC(=O)[C@H](CC(C)C)NC(=O)[C@@H](NC(=O)[C@H](C)NC(=O)[C@@H](NC(=O)[C@H](CO)NC(=O)[C@H](CC(C)C)NC(=O)[C@H](CCC(N)=O)NC(=O)[C@H](CO)NC(=O)[C@H](C)NC(=O)COCCOCCNC(=O)COCCOCCNC(=O)[C@H](CCC(=O)O)NC(=O)CCCCCCCCCCCCCCCCC(=O)O)[C@@H](C)O)C(C)C)C(=O)N[C@@H](CO)C(=O)N[C@@H](CC(=O)O)C(=O)N[C@@H](CCC(=O)O)C(=O)N[C@@H](CC(C)C)C(=O)N[C@@H](Cc1c[nH]cn1)C(=O)N[C@@H](CCCNC(=N)N)C(=O)N[C@@H](CC(C)C)C(=O)N[C@@H](CCC(N)=O)C(=O)N[C@@H](CC(=O)O)C(=O)N[C@@H](Cc1ccc(O)cc1)C(=O)N1CCC[C@H]1C(=O)N[C@@H](CCCNC(=N)N)C(=O)N[C@H](C(=O)N[C@@H](CC(=O)O)C(=O)N[C@H](C(=O)NCC(=O)N[C@@H](CO)C(=O)NCC(=O)N[C@@H](CO)C(=O)N1CCC[C@H]1C(N)=O)C(C)C)[C@@H](C)O [M24] ({C18 diacid}-E[AEEA][AEEA]ASQLSTAVLGRLSDELHRLQDYPRTDVGSGSP-NH2),–
−1.865,1.64%,No change,–,2.118,3.071,0.028,–,CC(C)C[C@H](NC(=O)[C@H](CCCNC(=N)N)NC(=O)CNC(=O)[C@H](CC(C)C)NC(=O)[C@@H](NC(=O)[C@H](C)NC(=O)[C@@H](NC(=O)[C@H](CO)NC(=O)[C@H](CC(C)C)NC(=O)[C@H](CCC(N)=O)NC(=O)[C@H](CO)NC(=O)[C@H](C)NC(=O)CC[C@H](NC(=O)CCCCCCCCCCCCCCCCCCC(=O)O)C(=O)O)[C@@H](C)O)C(C)C)C(=O)N[C@@H](CO)C(=O)N[C@@H](CC(=O)O)C(=O)N[C@@H](CCC(=O)O)C(=O)N[C@@H](CC(C)C)C(=O)N[C@@H](Cc1c[nH]cn1)C(=O)N[C@@H](CCCNC(=N)N)C(=O)N[C@@H](CC(C)C)C(=O)N[C@@H](CCC(N)=O)C(=O)N[C@@H](CC(=O)O)C(=O)N[C@@H](Cc1ccc(O)cc1)C(=O)N1CCC[C@H]1C(=O)N[C@@H](CCCNC(=N)N)C(=O)N[C@H](C(=O)N[C@@H](CC(=O)O)C(=O)N[C@H](C(=O)NCC(=O)N[C@@H](CO)C(=O)NCC(=O)N[C@@H](CO)C(=O)N1CCC[C@H]1C(N)=O)C(C)C)[C@@H](C)O [M6] ({C20 diacid-γGlu}-ASQLSTAVLGRLSDELHRLQDYPRTDVGSGSP-NH2),–
